Where two headings read alike, the source gives them in different places.
Key:
Assay type in all cases: in vivo
[1] = system: Echinochloa crus-galli (ECHCG); experiment: Post-emergence herbicidal action against ECHCG; settings: dosage 80 g/ha
In short: (§1)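 Greenhouse plants sprayed at the one-leaf stage, 2–3 weeks after sowing, with WP or EC formulations plus 0.5% additive at 600 l/ha water. Activity rated visually after about 3 weeks versus untreated controls (100% = dead, 0% = like control), at 320 g/ha or lower.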

Lolium rigidum (LOLRI) [2] = experiment: Post-emergence herbicidal action against LOLRI; settings: dosage 80 g/ha
In short: as §1

Setaria viridis (SETVI) [3] = experiment: Pre-emergence herbicidal action against SETVI
In short: (§2)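 Application rates ran to 320 g/ha or lower, with several dosages tested on the same weeds. The compound, as wettable powder or emulsion concentrate, is sprayed pre-emergence onto soil over sown seeds; greenhouse growth follows, and effect is rated visually after roughly 3 weeks.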

Oryza sativa (ORYSA) [4] = settings: crop plant compatibility
In short: (§3)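 Foliar application at the one-leaf stage: WP/EC formulation, 0.5% additive, 600 l/ha water. Greenhouse-grown in sandy loam. Endpoint is visual % injury relative to untreated controls at about 3 weeks.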

Zea mays (ZEAMX) [5] = settings: for Post-emergence action against ZEAMX in % (crop plant compatibility): 20 g/ha, effect in comparison to untreated controls; for Post-emergence action against ZEAMX in %: crop plant compatibility, 80 g/ha, effect vs untreated controls
In short: as §3

[6] = system: Alopecurus myosuroides (ALOMY); experiment: Post-emergence herbicidal action against ALOMY; settings: 80 g/ha, visual rating about 3 weeks after treatment vs untreated controls (100% = plants have died, 0% = like control plants)
In short: as §1

Viola tricolor (VIOTR) [7] = experiment: Pre-emergence herbicidal action against VIOTR
In short: as §2

[8] = system: Alopecurus myosuroides (ALOMY); experiment: Pre-emergence herbicidal action against ALOMY; settings: scored visually after about 3 weeks, 100% = plants have died
In short: as §2

Avena fatua (AVEFA) [9] = experiment: Pre-emergence herbicidal action against AVEFA; settings: 320 g/ha, visual scoring after about 3 weeks vs untreated controls
In short: as §2

[10] = system: Matricaria inodora (MATIN); experiment: Pre-emergence herbicidal action against MATIN; settings: dosage 320 g/ha
In short: as §2

Zea mays (ZEAMX) [11] = settings: pre-emergence, 80 g/ha, crop plant compatibility, in comparison to untreated controls
In short: (§4)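 Crop injury rated visually in percent against untreated plants roughly 3 weeks after treatment (0% no effect, 100% plants dead). Compounds, as WP or EC with 0.5% additive in 600 l/ha water, were applied to the covering soil right after sowing; greenhouse growth. Suffixes a, b, c denote different dosages.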

Brassica napus (BRSNW) = settings: 80 g/ha, crop plant compatibility, in comparison to untreated controls
In short: as §4

Lolium rigidum (LOLRI) [12] = experiment: Pre-emergence herbicidal action against LOLRI; settings: dosage 320 g/ha
In short: as §2

Avena fatua (AVEFA) [13] = experiment: Post-emergence herbicidal action against AVEFA; settings: 80 g/ha, visual rating about 3 weeks after treatment
In short: as §1

[14] = system: Polygonum convolvulus (POLCO); experiment: Pre-emergence herbicidal action against POLCO
In short: as §2

[15] = system: Verconica persica (VERPE); experiment: Pre-emergence herbicidal action against VERPE
In short: as §2

[16] = system: Amaranthus retroflexus (AMARE); experiment: Pre-emergence herbicidal action against AMARE; settings: visual scoring after about 3 weeks vs untreated controls
In short: as §2

[17] = system: Echinochloa crus-galli (ECHCG); experiment: Pre-emergence herbicidal action against ECHCG
In short: as §2

Viola tricolor (VIOTR) [18] = experiment: Post-emergence herbicidal action against VIOTR; settings: 80 g/ha
In short: as §1

[19] = system: Triticum aestivum (TRZAS); settings: crop plant compatibility, 20 g/ha, effect vs untreated controls
In short: as §3

[20] = system: Digitaria sanguinalis (DIGSA); experiment: Pre-emergence herbicidal action against DIGSA
In short: as §2

[21] = system: Abutilon theophrasti (ABUTH); experiment: Post-emergence herbicidal action against ABUTH; settings: 80 g/ha, visual rating about 3 weeks after treatment vs untreated controls (100% = plants have died, 0% = like control plants)
In short: as §1

[22] = system: Pharbitis purpurea (PHBPU); experiment: Post-emergence herbicidal action against PHBPU; settings: dosage 80 g/ha
In short: as §1

Oryza sativa (ORYSA) [23] = settings: pre-emergence, 80 g/ha, crop plant compatibility, in comparison to untreated controls
In short: as §4

[24] = system: Triticum aestivum (TRZAS); settings: pre-emergence, 80 g/ha, crop plant compatibility, in comparison to untreated controls
In short: as §4

[25] = system: Verconica persica (VERPE); experiment: Post-emergence herbicidal action against VERPE; settings: dosage 80 g/ha
In short: as §1

[26] = system: Amaranthus retroflexus (AMARE); experiment: Post-emergence herbicidal action against AMARE; settings: 80 g/ha, visual rating about 3 weeks after treatment vs untreated controls (100% = plants have died, 0% = like control plants)
In short: as §1

Setaria viridis (SETVI) [27] = experiment: Post-emergence herbicidal action against SETVI; settings: dosage 80 g/ha
In short: as §1

[28] = 20 g/ha, effect vs untreated controls
[29] = 80 g/ha, effect in comparison to untreated controls

Compound | Post-emergence action against ECHCG in % [1] [%] | Post-emergence action against LOLRI in % (Lolium rigidum (LOLRI) [2]) [%] | Pre-emergence action against SETVI in % (Setaria viridis (SETVI) [3]; dosage 320 g/ha) [%] | Post-emergence action against ORYSA in % (Oryza sativa (ORYSA) [4]; [28]) [%] | Post-emergence action against ORYSA in % (Oryza sativa (ORYSA) [4]; [29]) [%] | Post-emergence action against ZEAMX in % (crop plant compatibility) (Zea mays (ZEAMX) [5]) [%] | Post-emergence action against ZEAMX in % (Zea mays (ZEAMX) [5]) [%] | Post-emergence action against ALOMY in % [6] [%] | Pre-emergence action against VIOTR in % (Viola tricolor (VIOTR) [7]; 320 g/ha, Viola tricolor) [%] | Pre-emergence action against VIOTR in % (Viola tricolor (VIOTR) [7]; dosage 80 g/ha) [%] | Pre-emergence action against ALOMY ([8]; 320 g/ha) [%] | Pre-emergence action against AVEFA in % (Avena fatua (AVEFA) [9]) [%] | Pre-emergence action against MATIN in % [10] [%] | Pre-emergence action against BRSNW in % (Brassica napus (BRSNW)) [%] | Pre-emergence action against LOLRI in % (Lolium rigidum (LOLRI) [12]) [%] | Post-emergence action against AVEFA in % (Avena fatua (AVEFA) [13]) [%] | Pre-emergence action against POLCO in % ([14]; dosage 80 g/ha) [%] | Pre-emergence action against POLCO in % ([14]; dosage 320 g/ha) [%] | Pre-emergence action against AMARE in % ([16]; 320 g/ha) [%] | Pre-emergence action against ECHCG in % ([17]; dosage 320 g/ha) [%] | further results
COC(=O)[C@@H](C)Oc1nn(-c2ncccc2Cl)c(-c2ccc(F)nc2)c1Br [Example I-24] | 80 | 90 | 90 | 0 | 10 | 10 | 20 | 90 | 100 | 90 | 100 | 100 | 90 | 20 | 100 | 90 | 90 | 90 | 100 | 100 | Pre-emergence action against ALOMY ([8]; 80 g/ha): 100%; Pre-emergence action against ZEAMX in % (Zea mays (ZEAMX) [11]): 10%; Pre-emergence action against VERPE in % ([15]; dosage 80 g/ha): 80%; Pre-emergence action against VERPE in % ([15]; dosage 320 g/ha): 100%; Pre-emergence action against AMARE in % ([16]; 80 g/ha): 90%
CCOC(=O)C(C)Oc1nn(-c2ccccn2)c(-c2ccc(F)nc2)c1I (centres unmarked) [Example I-101] | – | 90 | 100 | 0 | 10 | 10 | 10 | 90 | 100 | 80 | 100 | 90 | – | 10 | 100 | 80 | – | – | 100 | 90 | Pre-emergence action against SETVI in % (Setaria viridis (SETVI) [3]; dosage 80 g/ha): 90%; Pre-emergence action against VERPE in % ([15]; dosage 320 g/ha): 100%; Post-emergence action against VIOTR in % (Viola tricolor (VIOTR) [18]): 80%
O=C(COc1nn(-c2ccccn2)c(-c2ccc(F)nc2)c1Cl)NS(=O)(=O)CC(F)(F)F [Example I-119] | 80 | – | 100 | 0 | 10 | 10 | – | 90 | 90 | 80 | 100 | 80 | 90 | – | 100 | – | 80 | 90 | 100 | 100 | Post-emergence action against TRZAS in % [19]: 20%; Pre-emergence action against DIGSA in % ([20]; 80 g/ha, visual scoring after about 3 weeks vs untreated controls): 100%; Pre-emergence action against DIGSA in % ([20]; dosage 320 g/ha): 100%; Post-emergence action against ABUTH in % [21]: 80%; Post-emergence action against PHBPU in % [22]: 80%; Pre-emergence action against ORYSA in % (Oryza sativa (ORYSA) [23]): 10%; Pre-emergence action against TRZAS in % [24]: 20%; Post-emergence action against VERPE in % [25]: 80%; Post-emergence action against AMARE in % [26]: 90%; Post-emergence action against SETVI in % (Setaria viridis (SETVI) [27]): 80%; Pre-emergence action against ECHCG in % ([17]; dosage 80 g/ha): 80%

Source: patent US20240041042A1, “1-(PYRIDYL)-5-AZINYLPYRAZOLE DERIVATIVES, AND THEIR USE FOR CONTROL OF UNDESIRED PLANT GROWTH” (Bayer Aktiengesellschaft, priority 2020, published 2024)
